Assay type in all cases: cell-based
One assay deals with HCT116. The assay is described as follows: Cell growth inhibition assay, colon cancer cell line HCT116. The conditions noted are these: Homo sapiens, HCT-116 colon cancer cell line. On the procedure: (§1) The inhibitory effects of the compounds of the present invention against the growth of cancer cells were evaluated as shown below. The cancer cell lines including stomach cancer cell line (AGS), breast cancer cell lines (MDA-MB-231, MDA-MB-468, and BT-549), prostate cancer cell lines (LNCaP and DU-145), colon cancer cell line (HCT116), ovarian cancer cell line (SW626), liver cancer cell line (Hep3B), kidney cancer cell line (ACHN), lung cancer cell line (NCI-H23) and blood cancer cell lines (HEL92.1.7 and U266) were cultured under the protocol provided by each supplier. A medium supplemented with 10 ng/mL of IL-6 was used for LNCaP, a prostate cancer cell line, when treated with a drug. Each type of cells to be used in experiments were sub-cultured in a 96-well plate by counting the exact number of cells using Tali™ Image-based Cytometer (Life Technologies). In a 96-well plate, AGS, HCT116, and DU-145 were employed with 3,000 cells/well; NCI-H23, SW626, Hep3B, ACHN, BT-549, MDA-MB-231, HEL92.1.7, and U266 were employed with 5,000 cells/well; and LNCaP and MDA-MB-468 were employed with 10,000 cells/well. The cells were treated with the compounds listed in Examples which were diluted in various concentrations. Upon completion of the compounds treatment, AGS, HCT116, SW626, DU145, NCI-H23, Hep3B, ACHN, BT-549, LNCaP, HEL92.1.7, and U266 cells were cultured at 37° C. under 5% CO2 for from 72 to 96 hours, and MDA-MB-231 and MDA-MB-468 cells were cultured at 37° C. in air for from 72 to 96 hours. Subsequently, the cells were observed under microscope and drug precipitation and particular findings were investigated and recorded. And then, the 96-well plate was placed at room temperature for 30 minutes, added with 20 μL/well of CellTiter-Glo solution (Cat No. G7573, Promega) and shaken for 10 minutes, followed by being subjected to the measurement using PHERAstar™ microplate reader (BMG LABTECH) according to the supplier's general luminometer protocol. […]

Another assay deals with HEL92.1.7. The assay is described as follows: Cell growth inhibition assay, blood cancer cell line HEL92.1.7. The conditions noted are these: Homo sapiens, HEL 92.1.7, HEL92.1.7 blood cancer cell line. The method in brief: (§2)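 Cells were seeded at 3,000/well (HCT116, DU-145) or 5,000/well (SW626 and the others) and exposed to serial compound dilutions for 72 to 96 h at 37 °C under 5% CO2. Viability was read as CellTiter-Glo luminescence against 0.1% DMSO and cell-free wells.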

For a further assay, the system named is AGS. The assay is described as follows: Cell growth inhibition assay, stomach cancer cell line AGS. The conditions noted are these: Homo sapiens; AGS stomach cancer cell line, 3,000 cells/well.
A further assay relates to BT-549. The assay is described as follows: Cell growth inhibition assay, breast cancer cell line BT-549. The conditions noted are these: Homo sapiens, BT-549 breast cancer cell line. On the procedure: (§3) The inhibitory effects of the compounds of the present invention against the growth of cancer cells were evaluated as shown below. The cancer cell lines including stomach cancer cell line (AGS), breast cancer cell lines (MDA-MB-231, MDA-MB-468, and BT-549), prostate cancer cell lines (LNCaP and DU-145), colon cancer cell line (HCT116), ovarian cancer cell line (SW626), liver cancer cell line (Hep3B), kidney cancer cell line (ACHN), lung cancer cell line (NCI-H23) and blood cancer cell lines (HEL92.1.7 and U266) were cultured under the protocol provided by each supplier. A medium supplemented with 10 ng/mL of IL-6 was used for LNCaP, a prostate cancer cell line, when treated with a drug. Each type of cells to be used in experiments were sub-cultured in a 96-well plate by counting the exact number of cells using Tali™ Image-based Cytometer (Life Technologies). In a 96-well plate, AGS, HCT116, and DU-145 were employed with 3,000 cells/well; NCI-H23, SW626, Hep3B, ACHN, BT-549, MDA-MB-231, HEL92.1.7, and U266 were employed with 5,000 cells/well; and LNCaP and MDA-MB-468 were employed with 10,000 cells/well. The cells were treated with the compounds listed in Examples which were diluted in various concentrations. Upon completion of the compounds treatment, AGS, HCT116, SW626, DU145, NCI-H23, Hep3B, ACHN, BT-549, LNCaP, HEL92.1.7, and U266 cells were cultured at 37° C. under 5% CO2 for from 72 to 96 hours, and MDA-MB-231 and MDA-MB-468 cells were cultured at 37° C. in air for from 72 to 96 hours. Subsequently, the cells were observed under microscope and drug precipitation and particular findings were investigated and recorded. And then, the 96-well plate was placed at room temperature for 30 minutes, added with 20 μL/well of CellTiter-Glo solution (Cat No. G7573, Promega) and shaken for 10 minutes, followed by being subjected to the measurement using PHERAstar™ microplate reader (BMG LABTECH) according to the supplier's general luminometer protocol. Wells where only culture liquid added without cell plating were used as a negative control, whereas wells where culture liquid containing 0.1% DMSO instead of the compounds listed in Examples were used as a positive control.

The test system of the next assay is DU-145. In words: Cell growth inhibition assay, prostate cancer cell line DU-145. The conditions noted are these: Homo sapiens, DU-145 prostate cancer cell line. The gist of the method:
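Viability by CellTiter-Glo luminescence after 72–96 h of compound dosing at 37° C. under 5% CO2; DU-145 and HCT116 seeded at 3,000 cells/well, SW626 at 5,000 cells/well.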

A further assay deals with ACHN. The assay is described as follows: Cell growth inhibition assay, kidney cancer cell line ACHN. The conditions noted are these: Homo sapiens. On the procedure:
as §1

The test system of the next assay is NCI-H23. The assay is described as follows: Cell growth inhibition assay, lung cancer cell line NCI-H23. The conditions noted are these: Homo sapiens. On the procedure:
as §1

The next assay has as its system Hep3B. The assay is described as follows: Cell growth inhibition assay, liver cancer cell line Hep3B. The conditions noted are these: Homo sapiens. On the procedure:
as §3

The next assay has as its system SW626. The assay is described as follows: Cell growth inhibition assay, ovarian cancer cell line SW626. The conditions noted are these: Homo sapiens. On the procedure:
as §1

In a further assay the target is T1, STAT3 (Homo sapiens, UniProt P40763).
T1 construct: plasmid pSTAT3-TA-luc), which contains a stably operating STAT3 promoter; endogenous in cells
In words: STAT3 reporter gene assay (luciferase), LNCaP stable cell line (pSTAT3-TA-luc), IL-6 stimulation. The gist of the method:
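Cytotoxicity was run on a duplicate plate with CellTiter-Glo, while the other plate gave luciferase read-outs from lysed LNCaP pSTAT3-TA-luc reporter cells. Cells were treated with graded compound concentrations plus IL-6 (10 ng/mL final) for 24–48 h in 3% DCC-FBS medium. Unstimulated and stimulated wells served as negative and positive controls.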

The test system of the next assay is MDA-MB-231. In words: Cell growth inhibition assay, breast cancer cell line MDA-MB-231. The conditions noted are these: Homo sapiens; MDA-MB-231 breast cancer cell line, 5,000 cells/well.
The next assay deals with U266. In words: Cell growth inhibition assay, blood cancer cell line U266. The conditions noted are these: Homo sapiens, U-266 blood cancer cell line. The method in brief: as §2
The next assay deals with LNCaP. In words: Cell growth inhibition assay, prostate cancer cell line LNCaP (medium with 10 ng/mL IL-6). The conditions noted are these: Homo sapiens, medium supplemented with 10 ng/mL of IL-6, 10,000 cells/well.
The subject of the next assay is MDA-MB-468. The assay is described as follows: Cell growth inhibition assay, breast cancer cell line MDA-MB-468. The conditions noted are these: Homo sapiens, MDA-MB-468 breast cancer cell line. On the procedure:
as §3

The next assay concerns IM-9. The assay is described as follows: Cell growth inhibition assay, cell line IM-9. The conditions noted are these: Homo sapiens, IM-9 cells.
The test system of the next assay is HCC1500. The assay is described as follows: Cell growth inhibition assay, cell line HCC1500. The conditions noted are these: HCC1500 cells.
The test system of a further assay is NCI-H661. In words: Cell growth inhibition assay, cell line NCI-H661. The conditions noted are these: Homo sapiens, NCI-H661 cells.
A further assay relates to Raji. In words: Cell growth inhibition assay, cell line Raji. The conditions noted are these: Homo sapiens, Raji cells.
A further assay relates to NCI-H1650. The assay is described as follows: Cell growth inhibition assay, cell line NCI-H1650. The conditions noted are these: Homo sapiens, NCI-H1650 cells.
For a further assay, the system named is MDA-MB-361. The assay is described as follows: Cell growth inhibition assay, cell line MDA-MB-361. The conditions noted are these: Homo sapiens, MDA-MB-361 cells.
A further assay concerns C-33A. In words: Cell growth inhibition assay, cell line C-33A. The conditions noted are these: Homo sapiens, C-33A cells.
A further assay relates to SW1417. The assay is described as follows: Cell growth inhibition assay, cell line SW1417. The conditions noted are these: Homo sapiens, SW1417 cells.
Another assay concerns NCI-H508. In words: Cell growth inhibition assay, cell line NCI-H508. The conditions noted are these: Homo sapiens, NCI-H508 cells.

Bounds are passed on as bounds.

T1 sequence (P40763 whole entry): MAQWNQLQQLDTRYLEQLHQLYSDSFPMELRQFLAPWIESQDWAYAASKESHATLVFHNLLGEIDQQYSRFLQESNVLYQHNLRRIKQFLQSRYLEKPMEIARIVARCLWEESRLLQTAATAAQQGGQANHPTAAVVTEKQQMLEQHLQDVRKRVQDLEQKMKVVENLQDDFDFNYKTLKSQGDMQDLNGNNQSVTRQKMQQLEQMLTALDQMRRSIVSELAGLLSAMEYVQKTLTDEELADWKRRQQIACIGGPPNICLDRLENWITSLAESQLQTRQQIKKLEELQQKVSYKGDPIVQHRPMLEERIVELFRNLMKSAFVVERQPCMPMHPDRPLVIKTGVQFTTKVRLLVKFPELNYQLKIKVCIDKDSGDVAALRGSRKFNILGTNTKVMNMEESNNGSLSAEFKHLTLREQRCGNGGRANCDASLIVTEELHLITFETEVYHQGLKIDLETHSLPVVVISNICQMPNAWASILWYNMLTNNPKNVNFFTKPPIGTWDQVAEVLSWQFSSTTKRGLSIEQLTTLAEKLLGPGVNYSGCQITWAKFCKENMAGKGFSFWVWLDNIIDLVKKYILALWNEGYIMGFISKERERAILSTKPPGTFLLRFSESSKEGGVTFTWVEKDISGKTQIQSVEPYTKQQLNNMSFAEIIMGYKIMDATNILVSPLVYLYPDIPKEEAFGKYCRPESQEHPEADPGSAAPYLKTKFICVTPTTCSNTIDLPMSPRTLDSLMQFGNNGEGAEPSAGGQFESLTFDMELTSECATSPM

With `COc1cc(OC(F)(F)F)cc(C(C)(C)c2cc(Br)cc(NC(=O)c3cc4cc(NS(C)(=O)=O)ccc4s3)c2)c1` [Example 36, N-(3-bromo-5-(2-(3-methoxy-5-(trifluoromethoxy)phenyl)propan-2-yl)phenyl)-5-(methylsulfonamido)benzo[b]thiophene-2-carboxamide], the IC50 in the assay on HCT116 is less than 0.072 µM; with HEL92.1.7, 0.27 µM; with AGS it was 0.009 µM; with BT-549, 0.043 µM; in the assay with DU-145, 0.006 µM; in the assay on ACHN it was less than 0.00085 µM. For the same compound, the half-maximal inhibitory concentration (IC50) in the assay on NCI-H23 was less than 0.21 µM; in the assay on Hep3B it was 2.2 µM; in the assay on SW626, 0.013 µM; at STAT3, 0.027 µM; in the assay on MDA-MB-231 it was 0.005 µM; with U266, 0.22 µM. In addition, the half-inhibitory concentration (IC50) in the assay on LNCaP is 0.21 µM; in the assay on MDA-MB-468 it was less than 0.0076 µM.

For `CN(c1ccc2cc(C(=O)Nc3cccc(-c4ccccc4C(F)(F)F)c3)[nH]c2c1)S(C)(=O)=O` [Example 346, 6-(N-methylmethylsulfonamido)-N-(2′-(trifluoromethyl)-[1,1′-biphenyl]-3-yl)-1H-indole-2-carboxamide], the half-inhibitory concentration (IC50) in the assay on IM-9 was found to be 0.51 µM; with HCT116, 1.5 µM; in the assay with HCC1500, 1.03 µM; with HEL92.1.7, 1.3 µM; in the assay on NCI-H661, 0.09 µM; in the assay with BT-549 it was 1 µM. For the same compound, the concentration for half-maximal inhibition (IC50) in the assay with Raji turned out to be 0.57 µM; in the assay on DU-145, 0.37 µM; in the assay with ACHN, 0.37 µM; with NCI-H23 it was 1.7 µM; in the assay on NCI-H1650, 0.62 µM; with Hep3B, 2.2 µM. The IC50 stood at 0.28 µM with MDA-MB-361; 0.29 µM with SW626; 0.3 µM in the assay with C-33A; 0.35 µM with SW1417; 0.2 µM against STAT3; 0.22 µM with NCI-H508. The values for the IC50 with MDA-MB-231, in the assay with LNCaP and in the assay on MDA-MB-468 were 0.18 µM, 0.463 µM and 0.14 µM, respectively.

One may read the IC50 as the concentration that inhibits the measured activity by half. Low readings indicate higher potency, high ones lower potency.

These data come from patent publication US10562912B2 (C&C Research Laboratories, priority 2013, dated 2020).
